Legend:
[1] = biological target: T1, human TLR8 (Homo sapiens, UniProt Q9NR97); test: cell-based
T1 sequence (Q9NR97 27-1041): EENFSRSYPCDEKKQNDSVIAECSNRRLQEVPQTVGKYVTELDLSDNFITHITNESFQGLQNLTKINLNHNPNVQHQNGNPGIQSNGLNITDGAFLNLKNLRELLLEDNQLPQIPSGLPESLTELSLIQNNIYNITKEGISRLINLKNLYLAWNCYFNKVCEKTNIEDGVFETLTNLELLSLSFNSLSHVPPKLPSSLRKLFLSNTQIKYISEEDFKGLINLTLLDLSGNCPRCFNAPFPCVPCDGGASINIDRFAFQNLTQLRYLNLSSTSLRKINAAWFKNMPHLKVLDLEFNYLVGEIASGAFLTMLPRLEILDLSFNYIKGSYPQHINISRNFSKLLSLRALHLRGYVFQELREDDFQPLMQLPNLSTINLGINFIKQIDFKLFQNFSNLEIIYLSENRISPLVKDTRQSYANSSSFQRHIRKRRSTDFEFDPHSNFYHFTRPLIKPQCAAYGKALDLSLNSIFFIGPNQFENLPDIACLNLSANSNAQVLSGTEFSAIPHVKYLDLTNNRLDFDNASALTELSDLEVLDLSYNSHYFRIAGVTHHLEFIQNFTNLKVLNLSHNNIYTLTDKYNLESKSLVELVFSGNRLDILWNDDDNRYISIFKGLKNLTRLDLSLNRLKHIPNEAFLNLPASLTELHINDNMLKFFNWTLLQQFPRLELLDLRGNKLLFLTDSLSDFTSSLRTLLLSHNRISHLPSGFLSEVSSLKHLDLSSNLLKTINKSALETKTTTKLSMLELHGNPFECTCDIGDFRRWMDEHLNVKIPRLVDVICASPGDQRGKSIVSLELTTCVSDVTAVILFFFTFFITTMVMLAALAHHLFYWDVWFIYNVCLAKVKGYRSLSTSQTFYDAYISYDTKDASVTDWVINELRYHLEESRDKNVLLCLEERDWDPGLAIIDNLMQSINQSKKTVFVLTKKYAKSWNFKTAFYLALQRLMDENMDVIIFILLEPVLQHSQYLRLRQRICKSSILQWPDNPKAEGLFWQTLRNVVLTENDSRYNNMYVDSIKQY

[2] = biological target: T2, mouse TLR7 (Mus musculus, UniProt P58681); test: cell-based
T2 sequence (P58681 27-1050): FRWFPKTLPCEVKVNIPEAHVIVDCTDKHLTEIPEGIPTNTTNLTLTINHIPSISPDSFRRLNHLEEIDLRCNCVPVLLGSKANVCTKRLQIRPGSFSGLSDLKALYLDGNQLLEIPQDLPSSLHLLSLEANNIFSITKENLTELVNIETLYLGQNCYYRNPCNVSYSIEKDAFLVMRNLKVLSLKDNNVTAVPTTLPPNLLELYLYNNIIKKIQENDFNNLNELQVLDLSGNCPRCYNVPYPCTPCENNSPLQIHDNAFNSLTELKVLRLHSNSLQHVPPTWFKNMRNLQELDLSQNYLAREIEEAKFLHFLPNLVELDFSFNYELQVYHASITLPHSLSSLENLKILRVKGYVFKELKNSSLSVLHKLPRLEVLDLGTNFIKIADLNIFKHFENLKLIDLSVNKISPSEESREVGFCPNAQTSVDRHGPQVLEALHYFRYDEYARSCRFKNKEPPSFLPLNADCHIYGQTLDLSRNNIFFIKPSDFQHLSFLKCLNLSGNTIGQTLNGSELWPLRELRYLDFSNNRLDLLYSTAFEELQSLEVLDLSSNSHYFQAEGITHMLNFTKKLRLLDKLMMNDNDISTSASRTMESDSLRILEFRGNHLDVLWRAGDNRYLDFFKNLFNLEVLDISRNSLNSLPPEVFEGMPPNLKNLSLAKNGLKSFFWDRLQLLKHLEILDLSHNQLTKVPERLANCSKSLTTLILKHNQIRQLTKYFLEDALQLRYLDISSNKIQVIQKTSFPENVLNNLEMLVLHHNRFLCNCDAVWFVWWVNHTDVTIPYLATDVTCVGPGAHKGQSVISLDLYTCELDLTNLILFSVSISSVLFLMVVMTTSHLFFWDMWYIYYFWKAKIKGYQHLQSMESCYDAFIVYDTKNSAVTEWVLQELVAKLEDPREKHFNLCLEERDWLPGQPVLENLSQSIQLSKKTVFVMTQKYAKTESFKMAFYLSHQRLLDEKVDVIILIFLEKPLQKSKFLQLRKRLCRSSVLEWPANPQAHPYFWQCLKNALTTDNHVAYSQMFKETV

SMILES: CCCCc1nc2c(N)nc3ccccc3c2n1CCO [UM-3001]
- EC50 [1]: 530 nM
- EC50 [2]: 480 nM

SMILES: CCCCCCCCCCCCCCCC(=O)OC[C@H](COCCOCCOCCOP(=O)(O)OCCn1c(CCCC)nc2c(N)nc3ccccc3c21)OC(=O)CCCCCCCCCCCCCCC [UM-3003]
- EC50 [1]: 52500 nM
- EC50 [2]: 12600 nM

SMILES: CCCCCCCCCCCCCCCC(=O)OC[C@H](COCCOCCOCCOCCOCCOCCOP(=O)(O)OCCn1c(CCCC)nc2c(N)nc3ccccc3c21)OC(=O)CCCCCCCCCCCCCCC [UM-3004]
- EC50 [1]: 24600 nM
- EC50 [2]: 860 nM

SMILES: CCCCCCCC/C=C\CCCCCCCC(=O)OC[C@H](COP(=O)(O)OCCc1ccc2c(c1)nc(N)c1nc(CCCC)n(CCO)c12)OC(=O)CCCCCCC/C=C\CCCCCCCC [UM-3005]
- EC50 [1]: 270 nM
- EC50 [2]: 1140 nM
